Patent US11326191B2 (LYGOS, INC., priority 2016, dated 2022)

Experiments:
[1] = Malonic acid solubility in water at various temperatures; format: physicochemical; details: 65° C.
[2] = Thermal stability of malonic acid (decarboxylation to acetic acid); format: physicochemical

solubility limit of malonic acid [1]: 76 % wt/wt | temperature at which malonic acid decarboxylates to form acetic acid [2]: approximately 80 °C | temperature at which malonic acid begins to rapidly decompose ([2]; under acidic conditions): about 80 °C
Compound: O=C(O)CC(=O)O [malonic acid, propanedioic acid]
